How the values were obtained:
Type in all cases: in vivo
Plutella xylostella = Plutella xylostella (diamond back moth) artificial diet test; settings: 144 h, 200 ppm (concentration in well 18 ppm), L2 larvae, 6 days, larval mortality, growth regulation
Procedure: 24-well microtiter plate (MTP) with artificial diet was treated with test solutions at an application rate of 200 ppm (concentration in well 18 ppm) by pipetting. After drying, the MTP's were infested with L2 larvae (7-12 per well). After an incubation period of 6 days, samples were checked for larval mortality and growth regulation.

Heliothis virescens = Heliothis virescens (tobacco budworm) egg/artificial diet test; settings: 96 h, 200 ppm (concentration in well 18 ppm), eggs 0-24 h old on artificial diet, 4 days, egg mortality, larval mortality, growth regulation
Procedure: Eggs (0-24 h old) were placed in 24-well microtiter plate on artificial diet and treated with test solutions at an application rate of 200 ppm (concentration in well 18 ppm) by pipetting. After an incubation period of 4 days, samples were checked for egg mortality, larval mortality, and growth regulation.

Thrips tabaci = Thrips tabaci (onion thrips) leaf disc spray test; settings: foliar, 168 h, 200 ppm spray on sunflower leaf discs, mixed ages, 7 days, mortality
Procedure: [The procedure below names another target; the source lists this target under the same test.] Sunflower leaf discs were placed on agar in a 24-well microtiter plate and sprayed with test solutions at an application rate of 200 ppm. After drying, the leaf discs were infested with an […] population of mixed ages. After an incubation period of 7 days, samples were checked for mortality.

Diabrotica balteata = Diabrotica balteata (corn root worm) artificial diet test; settings: 120 h, 200 ppm (concentration in well 18 ppm), L2 larvae, 5 days, larval mortality, growth regulation
Procedure: A 24-well microtiter plate (MTP) with artificial diet was treated with test solutions at an application rate of 200 ppm (concentration in well 18 ppm) by pipetting. After drying, the MTP's were infested with L2 larvae (6-10 per well). After an incubation period of 5 days, samples were checked for larval mortality and growth regulation.

Spodoptera littoralis = Spodoptera littoralis (Egyptian cotton leafworm) leaf disc spray test; settings: foliar, 72 h, 200 ppm spray on cotton leaf discs, L1 larvae, mortality, feeding behavior, growth regulation 3 days after treatment
Source text: Cotton leaf discs were placed on agar in a 24-well microtiter plate and sprayed with test solutions at an application rate of 200 ppm. After drying, the leaf discs were infested with 5 L1 larvae. The samples were checked for mortality, feeding behavior, and growth regulation 3 days after treatment (DAT).

Tetranychus urticae = Tetranychus urticae (two-spotted spider mite) leaf disc spray test; settings: foliar, 192 h, 200 ppm spray on bean leaf discs, mixed ages, 8 days, egg, larval and adult mortality
Source text: Bean leaf discs on agar in 24-well microtiter plates were sprayed with test solutions at an application rate of 200 ppm. After drying, the leaf discs are infested with mite populations of mixed ages. 8 days later, discs are checked for egg mortality, larval mortality, and adult mortality.

Myzus persicae = Myzus persicae (green peach aphid), systemic test; settings: 144 h, roots of infested pea seedlings in test solution, 6 days, mortality, special effects on the plant
Source text: Myzus persicae (Green peach aphid), systemic test: Roots of pea seedlings, infested with an aphid population of mixed ages, are placed directly in the test solutions at an application rate of 12.5 ppm. 6 days after introduction, samples are checked for mortality and special effects on the plant. The following compounds gave at least 80% control of Myzus persicae: A3, B2, B3, B5, B6, B7, B8, B11, B12, C1, C2, C3,C4, C5, C6, C7, D1, E1, E2, G1, G3, G5, G6, H1, H5, H6, H9, H10, H11, H12, H13, H14, H18, H19, H20, H24, H25, and H26.

Cc1cc(C2=NOC(c3cc(Cl)cc(Cl)c3)(C(F)(F)F)C2)ccc1C(=O)N[C@@H]1CON(C2COC2)C1=O (stereo partly drawn) [Compound B12, 4-[5-(3,5-Dichloro-phenyl)-5-trifluoromethyl-4,5-dihydro-isoxazol-3-yl]-2-methyl-N-((R)-2-(oxetan-3-yl)-3-oxo-isoxazolidin-4-yl)-benzamide]
≥ 80%: pest or weed control at 200 ppm (Plutella xylostella) | pest or weed control at 200 ppm (Heliothis virescens) | pest or weed control at 200 ppm (Thrips tabaci) | pest or weed control at 200 ppm (Diabrotica balteata) | pest or weed control at 200 ppm (Spodoptera littoralis) | pest or weed control at 200 ppm (Tetranychus urticae) | pest or weed control at 12.5 ppm (Myzus persicae)

CCN1OC[C@@H](NC(=O)c2ccc(C3=NOC(c4cc(Cl)c(Cl)c(Cl)c4)(C(F)(F)F)C3)cc2C)C1=O (stereo partly drawn) [Compound C1, 4-[5-(3,4,5-Trichloro-phenyl)-5-trifluoromethyl-4,5-dihydro-isoxazol-3-yl]-2-methyl-N-((R)-2-ethyl-3-oxo-isoxazolidin-4-yl)-benzamide]
≥ 80%: pest or weed control at 200 ppm (Plutella xylostella) | pest or weed control at 200 ppm (Heliothis virescens) | pest or weed control at 200 ppm (Thrips tabaci) | pest or weed control at 200 ppm (Diabrotica balteata) | pest or weed control at 200 ppm (Spodoptera littoralis) | pest or weed control at 200 ppm (Tetranychus urticae) | pest or weed control at 12.5 ppm (Myzus persicae)

CCN1OC[C@@H](NC(=O)c2ccc(C3=NOC(c4cc(Cl)c(Br)c(Cl)c4)(C(F)(F)F)C3)cc2C)C1=O (stereo partly drawn) [Compound C2, 4-[5-(3,5-Dichloro-4-bromo-phenyl)-5-trifluoromethyl-4,5-dihydro-isoxazol-3-yl]-2-methyl-N-((R)-2-ethyl-3-oxo-isoxazolidin-4-yl)-benzamide]
≥ 80%: pest or weed control at 200 ppm (Plutella xylostella) | pest or weed control at 200 ppm (Heliothis virescens) | pest or weed control at 200 ppm (Thrips tabaci) | pest or weed control at 200 ppm (Diabrotica balteata) | pest or weed control at 200 ppm (Spodoptera littoralis) | pest or weed control at 200 ppm (Tetranychus urticae) | pest or weed control at 12.5 ppm (Myzus persicae)

CCN1OC[C@@H](NC(=O)c2ccc(C3=NOC(c4cc(Cl)c(F)c(Cl)c4)(C(F)(F)F)C3)cc2C)C1=O (stereo partly drawn) [Compound C3, 4-[5-(3,5-Dichloro-4-fluoro-phenyl)-5-trifluoromethyl-4,5-dihydro-isoxazol-3-yl]-2-methyl-N-((R)-2-ethyl-3-oxo-isoxazolidin-4-yl)-benzamide]
≥ 80%: pest or weed control at 200 ppm (Plutella xylostella) | pest or weed control at 200 ppm (Heliothis virescens) | pest or weed control at 200 ppm (Thrips tabaci) | pest or weed control at 200 ppm (Diabrotica balteata) | pest or weed control at 200 ppm (Spodoptera littoralis) | pest or weed control at 200 ppm (Tetranychus urticae) | pest or weed control at 12.5 ppm (Myzus persicae)

CCN1OC[C@@H](NC(=O)c2ccc(C3=NOC(c4cc(F)cc(Cl)c4)(C(F)(F)F)C3)cc2C)C1=O (stereo partly drawn) [Compound C5, 4-[5-(3-chloro-5-fluoro-phenyl)-5-trifluoromethyl-4,5-dihydro-isoxazol-3-yl]-2-methyl-N-((R)-2-ethyl-3-oxo-isoxazolidin-4-yl)-benzamide]
≥ 80%: pest or weed control at 200 ppm (Plutella xylostella) | pest or weed control at 200 ppm (Heliothis virescens) | pest or weed control at 200 ppm (Thrips tabaci) | pest or weed control at 200 ppm (Diabrotica balteata) | pest or weed control at 200 ppm (Spodoptera littoralis) | pest or weed control at 200 ppm (Tetranychus urticae) | pest or weed control at 12.5 ppm (Myzus persicae)

Cc1cc(C2=NOC(c3cc(Cl)cc(Cl)c3)(C(F)(F)F)C2)ncc1C(=O)N[C@@H]1CON(CC(F)(F)F)C1=O (stereo partly drawn) [Compound C6, 6-[5-(3,5-Dichloro-phenyl)-5-trifluoromethyl-4,5-dihydro-isoxazol-3-yl]-4-methyl-N— [(R)-3-oxo-2-(2,2,2-trifluoro-ethyl)-isoxazolidin-4-yl]-nicotinamide]
≥ 80%: pest or weed control at 200 ppm (Plutella xylostella) | pest or weed control at 200 ppm (Heliothis virescens) | pest or weed control at 200 ppm (Thrips tabaci) | pest or weed control at 200 ppm (Diabrotica balteata) | pest or weed control at 200 ppm (Spodoptera littoralis) | pest or weed control at 200 ppm (Tetranychus urticae) | pest or weed control at 12.5 ppm (Myzus persicae)

CCN1CC(CNC(=O)c2ccc(C3=NOC(c4cc(Cl)cc(Cl)c4)(C(F)(F)F)C3)cc2C)CS1(=O)=O (stereo not shown) [Compound D1, 4-[5-(3,5-Dichloro-phenyl)-5-trifluoromethyl-4,5-dihydro-isoxazol-3-yl]-N-(2-ethyl-1,1-dioxo-1lambda*6*-isothiazolidin-4-ylmethyl)-2-methl-benzamide]
≥ 80%: pest or weed control at 200 ppm (Plutella xylostella) | pest or weed control at 200 ppm (Heliothis virescens) | pest or weed control at 200 ppm (Thrips tabaci) | pest or weed control at 200 ppm (Diabrotica balteata) | pest or weed control at 200 ppm (Spodoptera littoralis) | pest or weed control at 200 ppm (Tetranychus urticae) | pest or weed control at 12.5 ppm (Myzus persicae)

Cc1cc(C2=NOC(c3cc(Cl)cc(Cl)c3)(C(F)(F)F)C2)ccc1C(=O)N[C@H]1CON(C)C1=O (stereo partly drawn) [Compound E1, 4-[5-(3,5-Dichloro-phenyl)-5-trifluoromethyl-4,5-dihydro-isoxazol-3-yl]-2-methyl-N-((S)-2-methyl-3-oxo-isoxazolidin-4-yl)-benzamide]
≥ 80%: pest or weed control at 200 ppm (Plutella xylostella) | pest or weed control at 200 ppm (Heliothis virescens) | pest or weed control at 200 ppm (Thrips tabaci) | pest or weed control at 200 ppm (Diabrotica balteata) | pest or weed control at 200 ppm (Spodoptera littoralis) | pest or weed control at 200 ppm (Tetranychus urticae) | pest or weed control at 12.5 ppm (Myzus persicae)

CCN1OC[C@H](NC(=O)c2ccc(C3=NOC(c4cc(Cl)cc(Cl)c4)(C(F)(F)F)C3)cc2C)C1=O (stereo partly drawn) [Compound E2, 4-[5-(3,5-Dichloro-phenyl)-5-trifluoromethyl-4,5-dihydro-isoxazol-3-yl]-2-methyl-N-((S)-2-ethyl-3-oxo-isoxazolidin-4-yl)-benzamide]
≥ 80%: pest or weed control at 200 ppm (Plutella xylostella) | pest or weed control at 200 ppm (Heliothis virescens) | pest or weed control at 200 ppm (Thrips tabaci) | pest or weed control at 200 ppm (Diabrotica balteata) | pest or weed control at 200 ppm (Spodoptera littoralis) | pest or weed control at 200 ppm (Tetranychus urticae) | pest or weed control at 12.5 ppm (Myzus persicae)

CCN1OC[C@@H](NC(=O)c2ccc(C3=NO[C@@](c4cc(Cl)cc(Cl)c4)(C(F)(F)F)C3)cc2C)C1=O [Compound G1, 4-[5-(3,5-dichloro-phenyl)-5-(S)-trifluoromethyl-4,5-dihydro-isoxazol-3-yl]-2-methyl-N—((R)-2-ethyl-3-oxo-isoxazolidin-4-yl)-benzamide]
≥ 80%: pest or weed control at 200 ppm (Plutella xylostella) | pest or weed control at 200 ppm (Heliothis virescens) | pest or weed control at 200 ppm (Thrips tabaci) | pest or weed control at 200 ppm (Diabrotica balteata) | pest or weed control at 200 ppm (Spodoptera littoralis) | pest or weed control at 200 ppm (Tetranychus urticae) | pest or weed control at 12.5 ppm (Myzus persicae)
